Bridge positions count the residues as written; N and C are the ends. Square brackets hold non-standard residues; d marks the D form. Peptide text beside a SMILES is read from it. I, II: the chains in the order shown. Dap = NC[C@H](N)C(=O)O; Ahx = NCCCCCC(=O)O

Assay [1] relates to S. aureus RN4220 (mCherry) in dTHP-1 macrophages. As to the kind of experiment: Intracellular bacterial killing in macrophages. In kind it is cell-based, Staphylococcus aureus. The conditions noted are these: 24 h pre-treatment at 1 µM and 2 µM, MOI 2, CFU after lysis, versus no treatment. The procedure:
Human monocytes (THP-1; TIB-202; ATCC) were cultured in RPMI 1,640 medium (Gibco) supplemented with 10% FBS. For differentiation into macrophage-like cells (dTHP-1), THP-1 monocytes were seeded in 96-well plates at 3 × 10^4 cells/well (100 µL) in RPMI supplemented with 50 ng/mL phorbol 12-myristate 13-acetate (PMA; Sigma-Aldrich), and incubated for 48 h. The protocol for intracellular killing was adapted from Tang et al. ([Tang et al., 2015]) with modifications. After differentiation, dTHP-1 cells were pre-treated with one or 2 µM peptide solutions in fresh RPMI for 24 h. Subsequently peptides were removed by washing three times with PBS. An mCherry-expressing S. aureus strain, prepared as described in Section 5.2, was used. This strain is efficiently internalized by macrophages ([Cuypers et al., 2024]). Bacteria were added to dTHP-1 cells at a multiplicity of infection (MOI) of 2:1 and incubated for 45 min at 37 °C with 5% CO2 for phagocytosis. Extracellular bacteria were then removed by washing the wells three times with 60 µL PBS, followed by a final wash with 200 µL PBS.dTHP-1 cells were either lysed immediately to quantify the number of intracellular bacteria, after phagocytosis (T = 0 h) or were incubated for 24 h (T = 24 h) in RPMI supplemented with 10 μg/mL gentamicin (Sigma-Aldrich) to inhibit extracellular bacterial growth (in both peptide-treated and control dTHP-1 cells). Internalized bacteria were quantified after lysing the cells with 0.025% Triton X-100 in PBS for 15 min. Lysates were serially diluted (both at 0 h and 24 h) and plated onto BA for CFU enumeration to assess intracellular bacterial survival.

Assay [2] concerns primary human venous endothelial cells (HUVECs). In words: In vitro angiogenesis (tube formation) assay. Format: cell-based. The conditions noted are these: 4 h; for Number of tubular networks formed: 1 µM peptide, Matrigel, versus untreated control. The procedure: Primary human venous endothelial cells (HUVECs; CSC 2V0) were used to evaluate the in vitro angiogenic potential of peptides using a tube formation assay, adapted from Arnaoutova and Kleinman ([Arnaoutova and Kleinman, 2010]). Cells were cultured in low-serum endothelial cell growth medium 2 (2% v/v; Promo Cell). Briefly, 96-well plates were coated with 50 µL/well of phenol red-free, growth factor-reduced basement membrane matrix (Matrigel; Corning), and incubated at 37 °C for 1 h to allow gelation. […] Then, 100 µL of cell suspension (1.5 × 10^4 cells/well) was added to the Matrigel-coated wells in triplicate and incubated at 37 °C, 5% CO2 for 8 h. Tube formation was monitored using the IncuCyte S3 live-cell imaging system (Sartorius) with bright-field microscopy. Images were captured hourly, and the 4-h time point (corresponding to optimal tube formation) was used for analysis. The number of capillary-like structures was quantified using the “Angiogenesis Analyzer” plugin in ImageJ ([Carpentier et al., 2020]). Each peptide condition was tested in triplicate and repeated three times using different Matrigel batches to account for batch-to-batch variability.

In assay [3] the test system is S. aureus LUH14616 (MRSA). In words: Ex vivo human skin wound infection model. The arrangement: species or system Staphylococcus aureus. An excerpt:
Human skin from 3 donors was obtained via the Residual Tissue Biobank of the Red Cross Hospital (Beverwijk, Netherlands). The use of these coded, post-operative residual tissue samples was approved by patients through the informed opt-out-plus protocol of the Red Cross Hospital Skin ([Code-of-Conduct-for-Health-Research, 2022]) and processed for an ex vivo wound infection model as described ([Dijksteel et al., 2020]). The Wounded skin grafts were sectioned into approximately 1 cm^2 samples using a sterile scalpel and were decontaminated by immersion in 70% ethanol for 30 min, followed by three PBS washes. Samples were placed dermis-down and wound-side-up on stainless steel grids with central indentations, positioned in 12-well plates, and cultured at the air–liquid interface in DMEM at 37 °C and 5% CO2. To confine reagents to the wound area, a resin barrier (OpalDam; Ultradent) was applied to the wounded area and polymerized using a hand-held UV light (Valo X) for 10 s. The wounds were then topically infected with 10 µL of S. aureus LUH14616 suspension of 1 × 10^7 CFU/mL (final dose: 1 × 10^5 CFU/graft) in PBS for 1 h, followed by topical application of 10 µL of peptide solution for 4 h. Chlorhexidine (0.5% (v/v) in 70% ethanol; Entick B.V.) and PBS were used as positive and negative controls, respectively. After treatment, tissue samples were transferred to polypropylene vials containing 1 mL PBS supplemented with 0.025% (v/v) SPS and a 7 mm stainless steel bead. Homogenization was performed using a MagnaLyser System (Roche) with three 30-s cycles at 7,000 rpm, with 30 s of cooling on ice between cycles. Homogenates were 10-fold serially diluted in PBS, and 100 µL aliquots were plated on BA plates. CFUs were enumerated after overnight incubation at 37 °C.

The next assay concerns S. aureus JAR060131. In words: Bactericidal (time-kill) kinetics. Format: cell-based, Staphylococcus aureus. The conditions noted are these: for Time to complete bacterial eradication: all tested concentrations (0.94, 1.88, 3.75 µM); for Log reduction in CFU: within 5 min at 3.75 µM. The procedure:
Time-kill kinetics were evaluated against S. aureus JAR060131 and A. baumannii RUH875. Mid-logarithmic phase bacterial cultures were diluted to a final concentration of 1 × 10^6 CFU/mL in PBS. Bacteria were incubated with 0.5-, 2-, and 4-fold the LC99.9. Assays were conducted in polypropylene tubes (Micronics) with a total volume of 500 µL. Control samples consisted of bacteria incubated in PBS alone. At 1, 5, 30, and 120 min, 50 µL samples were collected and immediately added to 50 µL of 0.05% (v/v) sodium polyanethol sulfonate (SPS; Sigma-Aldrich) in PBS to neutralize residual peptide activity ([Dankert et al., 1995]). Viable bacterial counts were determined by plating 10 µL of serial 10-fold dilutions onto BA plates. Colonies were counted after 24 h of incubation at 37 °C. All conditions were performed in triplicate.

The mark [4] stands for this setting: 20 µM and 200 µM topical, 1 h infection, 4 h treatment, versus PBS (Figure 4B).

As for `N=C(N)NCCC[C@H](NC(=O)[C@H](Cc1c[nH]c2ccccc12)NC(=O)[C@H](CCC(N)=O)NC(=O)[C@H](Cc1c[nH]c2ccccc12)NC(=O)[C@H](CCCNC(=N)N)NC(=O)[C@@H](N)CCCNC(=N)N)C(=O)NC[C@H](NC(=O)[C@H](CCCNC(=N)N)NC(=O)[C@H](Cc1c[nH]c2ccccc12)NC(=O)[C@H](CCC(N)=O)NC(=O)[C@H](Cc1c[nH]c2ccccc12)NC(=O)[C@H](CCCNC(=N)N)NC(=O)[C@@H](N)CCCNC(=N)N)C(=O)NCCCCCC(=O)N[C@@H](CSSC[C@H](NC(=O)CCCCCNC(=O)[C@H](CNC(=O)[C@H](CCCNC(=N)N)NC(=O)[C@H](Cc1c[nH]c2ccccc12)NC(=O)[C@H](CCC(N)=O)NC(=O)[C@H](Cc1c[nH]c2ccccc12)NC(=O)[C@H](CCCNC(=N)N)NC(=O)[C@@H](N)CCCNC(=N)N)NC(=O)[C@H](CCCNC(=N)N)NC(=O)[C@H](Cc1c[nH]c2ccccc12)NC(=O)[C@H](CCC(N)=O)NC(=O)[C@H](Cc1c[nH]c2ccccc12)NC(=O)[C@H](CCCNC(=N)N)NC(=O)[C@@H](N)CCCNC(=N)N)C(N)=O)C(N)=O` [LBT-1] (I: H-RRWQWR[Dap][Ahx]C-NH2 / II: H-RRWQWR[Dap][Ahx]C-NH2 / III: H-RRWQWR / IV: H-RRWQWR; amide I:7-III:C, II:7-IV:C; disulfide I:9-II:9; N-terminus and C-terminus assumed), the “Macrophage reduction of intracellular S. aureus burden 24 h post-phagocytosis” value in assay [1] is listed as “significantly enhanced”. Besides, the “Number of tubular networks formed” value in assay [2] was “significantly increasing the number of networks”. For the same molecule, in assay [2] (concentration series 0.5–3 µM), the “Concentration at which tube formation peaked” value is on record as 2 µM and the “Tube formation at 3 µM” value was “declined”. Moreover, the “Reduction of bacterial load (CFU counts)” value in assay [3] (setting [4]) is recorded as “dose-dependent reduction”. Besides, the “Reduction of bacterial load after different infection durations” value in assay [3] (200 µM for 4 h, started 0.5, 1 or 2 h post-infection (Figure 4D)) is reported as “significantly reduced bacterial load in all groups”. For the same molecule, the “Reduction of bacterial load (CFU counts)” value in assay [3] (200 µM topical, 4 h treatment, versus PBS (Figure 4B), p < 0.05) is “significant decrease”. In assay [3] (200 µM topical, 4 h treatment, versus untreated control (Figure 4C), p < 0.001), the “Reduction of bacterial load (CFU counts)” value is recorded as “significantly reduced bacterial load”. In assay [3] (ex vivo wounded human skin, 4 h treatment), this molecule returned an Effective bactericidal concentration of 200 µM. In the assay with S. aureus JAR060131, the “Time to complete bacterial eradication” value is “up to 120 min” and the “Log reduction in CFU” value is given as more than 3 log.
For `N=C(N)NCCC[C@H](NC(=O)[C@H](Cc1c[nH]c2ccccc12)NC(=O)[C@H](CCC(N)=O)NC(=O)[C@H](Cc1c[nH]c2ccccc12)NC(=O)[C@H](CCCNC(=N)N)NC(=O)[C@@H](N)CCCNC(=N)N)C(=O)NCCCC[C@H](NC(=O)[C@H](CCCNC(=N)N)NC(=O)[C@H](Cc1c[nH]c2ccccc12)NC(=O)[C@H](CCC(N)=O)NC(=O)[C@H](Cc1c[nH]c2ccccc12)NC(=O)[C@H](CCCNC(=N)N)NC(=O)[C@@H](N)CCCNC(=N)N)C(=O)NCCCCCC(=O)N[C@@H](CSSC[C@H](NC(=O)CCCCCNC(=O)[C@H](CCCCNC(=O)[C@H](CCCNC(=N)N)NC(=O)[C@H](Cc1c[nH]c2ccccc12)NC(=O)[C@H](CCC(N)=O)NC(=O)[C@H](Cc1c[nH]c2ccccc12)NC(=O)[C@H](CCCNC(=N)N)NC(=O)[C@@H](N)CCCNC(=N)N)NC(=O)[C@H](CCCNC(=N)N)NC(=O)[C@H](Cc1c[nH]c2ccccc12)NC(=O)[C@H](CCC(N)=O)NC(=O)[C@H](Cc1c[nH]c2ccccc12)NC(=O)[C@H](CCCNC(=N)N)NC(=O)[C@@H](N)CCCNC(=N)N)C(N)=O)C(N)=O` [LBT] (I: H-RRWQWRK[Ahx]C-NH2 / II: H-RRWQWRK[Ahx]C-NH2 / III: H-RRWQWR / IV: H-RRWQWR; amide I:7-III:C, II:7-IV:C; disulfide I:9-II:9; N-terminus and C-terminus assumed), in assay [1], the “Macrophage reduction of intracellular S. aureus burden 24 h post-phagocytosis” value is “significantly enhanced”. Also, in assay [2], the “Number of tubular networks formed” value is “enhanced tube formation”. In addition, the “Reduction of bacterial load (CFU counts)” value in assay [3] (setting [4]) is “minimal and non-significant reductions”. For the same molecule, in the assay on S. aureus JAR060131, the “Time to complete bacterial eradication” value is recorded as “up to 120 min” and the “Log reduction in CFU” value is more than 3 log.

Source of the values: paper PMC12705620 (Frontiers in Pharmacology, 2025).
